From patent publication US20050004044A1, “Use of orsaponin [3beta, 16beta, 17 alpha-trihydroxycholost-5-en-22-one 16-0-(2-0-4-methoxybenzoyl-beta-D-xylopyranosyl)-(1->3)-(2-0-acetyl-alpha-L-arabinopyranoside)] or OSW-1 and its derivatives for cancer therapeutics” (priority 2003, published 2005)
Read-outs that look alike come from different tables or passages of the source.

Columns and labels:
[1] = test system: pancreatic cancer AsPC-1 cells; assay: MTT cell growth inhibition, AsPC-1; assay type: cell-based, human; settings: AsPC-1, 72 h or 96 h
Method: FIG. 3. Effect of Orsaponin (OSW-1) on cell growth in human pancreatic cancer cells. Human pancreatic cancer AsPC-1 cells were treated with the indicated concentrations of OSW-1 for 72 h or 96 h. Cell growth inhibition was measured by MTT assay.
FIG. 4. The anticancer activity of Orsaponin (OSW-1) is not affected by NFκB expression in pancreatic cancer cells. Human pancreatic cancer cells AsPC-1 with constitutive activation of NFκB or inactivation of NFκB by dominant negative IκBα (AsPC-1/IκBα-ND) were treated with the indicated concentrations of OSW-1 for 72 h. Cell growth inhibition was measured by MTT assay.
Cells and Cell Lines. Various cancer cell lines were used including the human leukemia cell lines HL-60 and ML-1 cells; human lymphoma cell line Raji; human pancreatic cancer cells AsPC-1; and human ovarian cancer cells SKOV3; human colon cancer cells HCT116; as well as isolated CLL cells from patients; and lymphocytes from normal donors. […]
1. […] After the indicated number of days (usually 3 days or 72 hours) of exposure to OSW-1, cell survival was assessed by the addition of the MTT dye to the wells. […] Survival of cells under orsaponin treatment was evaluated as a percentage of control cell growth. […]
(§1) The effect of Orsaponin and 17-deoxyorsaponin in pancreatic cancer cells was also assessed. […] Cell growth inhibition was measured by MTT assay.

[2] = test system: primary normal lymphocytes; assay: MTT cell viability, normal lymphocytes from healthy donors; assay type: cell-based; settings: Homo sapiens, Lymphocyte
Method: FIG. 8. Effect of Orsaponin (OSW-1) on cell survival in primary normal lymphocytes isolated from healthy donors. Freshly isolated normal lymphocytes were incubated with the indicated concentrations of OSW-1 for 72 hours in vitro. Cell viability was measured by MTT assay. The IC50 value estimated to be 4 nM and 3 nM in case #1 and #2, respectively.
(§2) 1. MTT Assays. For these assays either cancer cell lines were used. Alternatively, mononuclear cells from peripheral blood samples of CLL patients or normal donors were separated by Ficoll Hipaque fractionation and resuspended in DMEM complete medium. Malignant cells from various human cell lines (usually at 5×10^4 cells/ml) or mononuclear cells from peripheral blood of leukemia patients and healthy donors (1×10^6 cells/ml) were incubated in either αMEM or RPMI 1640 with or without various concentrations of OSW-1 in the range of 0-10 nM. Each experimental condition was done in triplicate. After the indicated number of days (usually 3 days or 72 hours) of exposure to OSW-1, cell survival was assessed by the addition of the MTT dye to the wells. The MTT dye changes its color depending on the presence of live cells in the well. Survival of cells under orsaponin treatment was evaluated as a percentage of control cell growth. Alternatively, one can also use the dye trypan-blue which penetrates dead cells thereby allowing one to count live cells under the microscope and estimating percentage survival.
As controls the effect of OSW-1 on cell survival in primary normal lymphocytes isolated from healthy donors was also analyzed. Freshly isolated normal lymphocytes were incubated with the 01-0 nM OSW-1 for 72 hours in vitro and cell viability was measured by MTT assay. As depicted in FIG. 8, the IC50 value estimated to be 4 nM and 3 nM in case #1 and #2, respectively.

[3] = test system: C6F cells (HL-60 mutant with mitochondrial respiration defect); assay: Apoptosis and cell cycle, respiration-deficient C6F; assay type: cell-based, human; settings: 0.5 nM, 16 and 24 h
Method: FIG. 9. Mitochondrial respiration plays an important role in the cytotoxic action of Orsaponin (OSW-1). The parental HL-60 line and its mutant with mitochondrial respiration defect, clone C6F, were incubated with 0.5 nM OSW-1 for the indicated times. Apoptosis and change in cell cycle distribution were assayed by flow cytometry analysis.
Two cancer cell lines and their mutant mitochondrial respiration deficient clones were analyzed for apoptosis and changes in cell-cycle following exposure to OSW-1. Thus, the parental HL-60 leukemia line and its mitochondrial respiration defective mutant C6F were incubated with 0.5 nM OSW-1 for 0, 8, 16 and 24 hours and apoptosis and change in cell cycle distribution were assayed by flow cytometry analysis. […] Thus, it is clear that the respiration defective cells are resistant to the effects of OSW-1. Consistent with these observations, apoptosis was also detected by DNA fragmentation assays performed at 24 and 32 hours after HL-60 cells are treated with OSW-1; DNA fragmentation was not observed in C6F cells even at 32 hours of drug incubation (data not shown).

HL-60 cells = assay: Mitochondrial transmembrane potential (rhodamine-123), HL-60; assay type: cell-based, human; settings: HL-60, 0.5 nM
Method: FIG. 10. Effect of Orsaponin (OSW-1) on Mitochondrial transmembrane potential HL-60 cells. The parental HL-60 line and its mutant with mitochondrial respiration defect, clone C6F, were incubated with 0.5 nM OSW-1 for the indicated times. Change in mitochondrial transmembrane potential was measured by cytometry analysis, using rhodamine-123 as a potential-sensitive fluorescent dye.
3. Analysis of the Mitochondrial Transmembrane Potential. To evaluate the role of mitochondrial respiration in the cytotoxicity of OSW-1, changes in the potential of mitochondrial membrane were analyzed. Following the treatment of cells with OSW-1 for different time periods, cells were incubated with rhodamine-123 which is a potential-sensitive dye. Cytometric analysis was used to record changes in mitochondrial potential. […]
The effect of OSW-1 on mitochondrial transmembrane potential in HL-60 cells and C6F cells was also analyzed by incubating the cells with 0.5 nM OSW-1 for the 4, 16 and 24 hours. Change in mitochondrial transmembrane potential was measured by flow cytometry analysis, using rhodamine-123 as a potential-sensitive fluorescent dye and are depicted in FIG. 10.

[4] = test system: pancreatic cancer (Panco-2) cells; assay: MTT cell growth inhibition, Panco-2; assay type: cell-based; settings: Mus musculus, Panco-2, 72 h
Method: as §2, §1

[5] = test system: malignant glioma U87-MG cells; assay: MTT cell growth inhibition, U87-MG glioma; assay type: cell-based, human
Method: as §2
To test the therapeutic selectivity of Orsaponin and 17-deoxyorsaponin, their effect on human brain tumor cells (U87 malignant glioma) and normal human astrocytes were compared. The normal human astrocytes were previously immortalized by transfection with hTER to allow a long-term culture in vitro. The antiproliferative effect of Orsaponin in human malignant glioma cells (U87-MG) and normal human astrocytes was examined. Cells were incubated with various concentrations of Orsaponin for 72 h. Cell growth inhibition was measured by MTT assay (FIG. 21).

[6] = test system: normal human astrocytes (immortalized with hTER); assay: MTT cell growth inhibition, normal astrocytes; assay type: cell-based; settings: Astrocyte, 72 h
Method: as §2
To test the therapeutic selectivity of Orsaponin and 17-deoxyorsaponin, their effect on human brain tumor cells (U87 malignant glioma) and normal human astrocytes were compared. […] Cell growth inhibition was measured by MTT assay (FIG. 21).

[7] = test system: human promyelocytic leukemia HL-60 cells; settings: Mimaki et al., 1997; read-out: IC50, cytostatic activity against HL-60; cited from earlier work

Structure (SMILES): COc1ccc(C(=O)OC2C(OC3C(O)COC(O[C@H]4C[C@H]5[C@@H]6CC=C7C[C@@H](O)CC[C@]7(C)[C@H]6CC[C@]5(C)[C@@]4(O)[C@H](C)C(=O)CCC(C)C)C3OC(C)=O)OCC(O)C2O)cc1 (stereo partly drawn) [OSW-1, 3β, 16β, 17 α-trihydroxycholost-5-en-22-one 16-O-(2-O-4-methoxybenzoyl-β-D-xylopyranosyl)-(1->3)-(2-O-acetyl-α-L-arabinopyranoside)]
- concentrations at which highly potent [1]: 0.1 to 5 nM
- IC50 ([2]; 72 h, normal lymphocytes, 72 hours, case #1, read-out: IC50, cell viability): ~4 nM
- IC50 ([2]; 72 h, normal lymphocytes, 72 hours, case #2, read-out: IC50, cell viability): ~3 nM
- IC50 ([2]; Normal Lymphocytes, mean, read-out: IC50): 3.5 ± 0.7 nM
- apoptosis [3]: does not result in significant apoptosis
- change in mitochondrial transmembrane potential (HL-60 cells; 16-24 h): substantial loss of mitochondrial transmembrane potential
- change in mitochondrial transmembrane potential (HL-60 cells; 4 h): did not cause a significant change in mitochondrial transmembrane potential
- IC50 [4]: 0.1 nM
- IC50 ([5]; Homo sapiens, U-87 MG, U87-MG, 72 h, MTT): < 0.1 nM
- sensitivity of glioma cells compared with normal astrocytes ([5]; U87-MG vs normal human astrocytes): much more sensitive
- IC50 [6]: ~1 nM
- IC50 [7]: 0.1 to 0.3 nM
